25 compounds from patent US9498483B2, “2,3,5-trisubstituted thiophene compounds and uses thereof” (priority 2010, dated 2016) can be followed below.

A value given as a limit tells only on which side of the number the result lay.

Test [1] has as its system HCV replicon I389luc-ubi-neo/NS3-3′/ET in ET (Huh-lucubineo-ET) cells. The test is described as follows: Replicon assay (Biological Example 2), luciferase readout. Format: cell-based. The following applies: Hepatitis C virus. Put shortly:
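EC50 values come from Hill fits of % inhibition of replicon-driven firefly luciferase, relative to no-compound wells. Compounds were serially diluted (10 points, 3-fold, 0.1 nM–50 μM final, 0.5% DMSO) onto ET replicon cells and read after 48 h.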
On the technique in general: In antiviral work, replicon cells carry a viral genome segment that copies itself.

The target in a further test is T1, HCV polymerase (Hepatitis C virus genotype 1b, UniProt Q9WMX2).
T1 construct: (His)6 (C); made in house; host or cells: XL-1 cells (E. coli, by own knowledge)
Description: Polymerase assay of Biological Example 1 (IC50 values of Table 3). Format: biochemical. The following applies: IC50 values of Table 3, polymerase assay of Biological Example 1; read-out: NS5B-enzyme3.

The mark [2] stands for this setting: ET cells, luciferase activity 48 hours after compound.

As for `Cn1nccc1S(=O)(=O)N1CC(=O)N(c2cc(C#CC(C)(C)C)sc2C(=O)O)[C@H](C2CCCCC2)C1` [Compound 254, 3-[(R)-2-Cyclohexyl-4-(2-methyl-2H-pyrazole-3-sulfonyl)-6-oxo-piperazin-1-yl]-5-(3,3-dimethyl-but-1-ynyl)-thiophene-2-carboxylic acid], the IC50 in test [1] (between 100 nM and 5.0 uM) was 0.1 to 5 µM; at HCV polymerase it was 0.015 µM.

Regarding `CC1(NC(=O)OC(C)(C)C)CCN(c2ccc(S(=O)(=O)N3CC(=O)N(c4cc(-c5ccccc5)sc4C(=O)O)[C@H](C4CCCCC4)C3)cn2)CC1` [Compound 153, 3-[(R)-4-(4-tert-Butoxycarbonylamino-4-methyl-3,4,5,6-tetrahydro-2H-[1,2′]bipyridinyl-5′-sulfonyl)-2-cyclohexyl-6-oxo-piperazin-1-yl]-5-phenyl-thiophene-2-carboxylic acid], the IC50 in test [1] (between 100 nM and 5.0 uM) was 0.1 to 5 µM; on HCV polymerase, 0.004 µM.

For `O=C(O)c1sc(-c2ccccc2)cc1N1C(=O)CN(S(=O)(=O)c2ccc(N3CCNCC3)nc2)C[C@@H]1C1CCCCC1` [Compound 132, 3-[(S)-2-Cyclohexyl-6-oxo-4-(6-piperazin-1-yl-pyridine-3-sulfonyl)-piperazin-1-yl]-5-phenyl-thiophene-2-carboxylic acid], the values for the IC50 (in test [1] (setting [2]); on HCV polymerase) were at least 5 µM and 0.108 µM, respectively.

For `CC(C)(C)C#Cc1cc(N2C(=O)C(CO)OC[C@H]2C2CCCCC2)c(C(=O)O)s1` (stereo partly drawn) [Compound 329, 3-((R)-5-Cyclohexyl-2-hydroxymethyl-3-oxo-morpholin-4-yl)-5-(3,3-dimethyl-but-1-ynyl)-thiophene-2-carboxylic acid], the values for the IC50 (in test [1] (setting [2]); on HCV polymerase) were at most 0.1 µM and 0.005 µM, respectively.

`CC(C)(C)C#Cc1cc(N2C(=O)[C@H](CC(O)CO)OC[C@H]2C2CCCCC2)c(C(=O)O)s1` (stereo partly drawn) [Compound 331, 3-[(2S,5R)-5-Cyclohexyl-2-(2,3 dihydroxy-propyl)-3-oxo-morpholin-4-yl]-5-(3,3-dimethyl-but-1-ynyl)-thiophene-2 carboxylic acid]: the IC50 in test [1] (between 100 nM and 5.0 uM) is 0.1 to 5 µM; on HCV polymerase it was 0.008 µM.

For the compound `O=C(Cc1ccccc1)NC1CC(=O)N(c2cc(-c3ccccc3)sc2C(=O)O)C(C2CCCCC2)C1` (centres unmarked) [Compound 20, 3-(2-Cyclohexyl-6-oxo-4-phenylacetylamino-piperidin-1-yl)-5-phenyl-thiophene-2-carboxylic acid], the figures for the IC50 (in test [1] (setting [2]); on HCV polymerase) were at least 5 µM and 0.128 µM, respectively.

Take `O=C(O)c1sc(-c2ccc(Cl)cc2)cc1N1C(=O)COC[C@H]1C1CCCCC1` [Compound 293, 5-(4-Chloro-phenyl)-3-((R)-3-cyclohexyl-5-oxo-morpholin-4-yl)-thiophene-2-carboxylic acid]: the IC50 in test [1] (between 100 nM and 5.0 uM) was 0.1 to 5 µM; at HCV polymerase it was 0.005 µM.

Regarding `Cc1ccc(S(=O)(=O)N2CC(=O)N(c3cc(-c4ccccc4)sc3C(=O)O)[C@H](C3CCCCC3)C2)cc1` [Compound 18, 3-[(R)-2-Cyclohexyl-6-oxo-4-(toluene-4-sulfonyl)-piperazin-1-yl]-5-phenyl-thiophene-2-carboxylic acid], the IC50 in test [1] (between 100 nM and 5.0 uM) was 0.1 to 5 µM; at HCV polymerase, 0.002 µM.

As for `Cc1ccc(-c2cc(N3C(=O)CN(S(=O)(=O)c4ccc(N5CCCC5)nc4)C[C@H]3C3CCCCC3)c(C(=O)O)s2)cc1` [Compound 272, 3-[(R)-2-Cyclohexyl-6-oxo-4-(6-pyrrolidin-1-yl-pyridine-3-sulfonyl)-piperazin-1-yl]-5-p-tolyl-thiophene-2-carboxylic acid], the IC50 in test [1] (setting [2]) is at most 0.1 µM; on HCV polymerase, 0.001 µM.

With `CCn1cc(S(=O)(=O)N2CC(=O)N(c3cc(C#CC(C)(C)C)sc3C(=O)O)[C@H](C3CCCCC3)C2)cn1` [Compound 275, 3-[(R)-2-Cyclohexyl-4-(1-ethyl-1H-pyrazole-4-sulfonyl)-6-oxo-piperazin-1-yl]-5-(3,3-dimethyl-but-1-ynyl)-thiophene-2-carboxylic acid], the IC50 is at most 0.1 µM in test [1] (setting [2]) and 0.002 µM on HCV polymerase.

Turning to `O=C(O)c1sc(-c2ccccc2)cc1N1C(=O)CN(S(=O)(=O)c2ccc(-c3ccccc3)cc2)CC1C1CCCCC1` (centres unmarked) [Compound 60, 3-[4-(Biphenyl-4-sulfonyl)-2-cyclohexyl-6-oxo-piperazin-1-yl]-5-phenyl-thiophene-2-carboxylic acid], the IC50 in test [1] (between 100 nM and 5.0 uM) is 0.1 to 5 µM; on HCV polymerase it was 0.009 µM.

In the case of `Cc1nccc(-c2cccc(S(=O)(=O)N3CC(=O)N(c4cc(-c5ccccc5)sc4C(=O)O)C(C4CCCCC4)C3)c2)n1` (centres unmarked) [Compound 63, 3-{2-Cyclohexyl-4-[3-(2-methyl-pyrimidin-4-yl)-benzenesulfonyl]-6-oxo-piperazin-1-yl}-5-phenyl-thiophene-2-carboxylic acid], the IC50 is 0.1 to 5 µM in test [1] (between 100 nM and 5.0 uM); 0.042 µM at HCV polymerase.

Turning to `Cn1ccc(S(=O)(=O)N2CC(=O)N(c3cc(-c4ccc(Cl)cc4)sc3C(=O)O)[C@H](C3CCCCC3)C2)n1` [Compound 284, 5-(4-Chloro-phenyl)-3-[(R)-2-cyclohexyl-4-(1-methyl-1H-pyrazole-3-sulfonyl)-6-oxo-piperazin-1-yl]-thiophene-2-carboxylic acid], the IC50 in test [1] (setting [2]) was at most 0.1 µM; on HCV polymerase, 0.003 µM.

Consider `CCCCCS(=O)(=O)N1CC(=O)N(c2cc(-c3ccccc3)sc2C(=O)O)C(C2CCCCC2)C1` (centres unmarked) [Compound 31, 3-[2-Cyclohexyl-6-oxo-4-(pentane-1-sulfonyl)-piperazin-1-yl]-5-phenyl-thiophene-2-carboxylic acid], for which the IC50 in test [1] (between 100 nM and 5.0 uM) was 0.1 to 5 µM; on HCV polymerase, 0.047 µM.

Consider `Cc1ccc(-c2cc(N3C(=O)CN(S(=O)(=O)c4cnc(C)c(C)c4)C[C@H]3C3CCCCC3)c(C(=O)O)s2)cc1` [Compound 305, 3-[(R)-2-Cyclohexyl-4-(5,6-dimethyl-pyridine-3-sulfonyl)-6-oxo-piperazin-1-yl]-5-p-tolyl-thiophene-2-carboxylic acid], for which the IC50 in test [1] (setting [2]) is at most 0.1 µM; on HCV polymerase it was 0.004 µM.

Turning to `Cc1nc(C)c(S(=O)(=O)N2CC(=O)N(c3cc(C#CC(C)(C)C)sc3C(=O)O)[C@H](C3CCCCC3)C2)s1` [Compound 244, 3-[(R)-2-Cyclohexyl-4-(2,4-dimethyl-thiazole-5-sulfonyl)-6-oxo-piperazin-1-yl]-5-(3,3-dimethyl-but-1-ynyl)-thiophene-2-carboxylic acid], the results for the IC50 (in test [1] (setting [2]); on HCV polymerase) were at most 0.1 µM and 0.002 µM, respectively.

For `O=C(O)c1sc(-c2ccccc2)cc1N1C(=O)CN(S(=O)(=O)c2ccccc2F)CC1C1CCCCC1` (centres unmarked) [Compound 40, 3-[2-Cyclohexyl-4-(2-fluoro-benzenesulfonyl)-6-oxo-piperazin-1-yl]-5-phenyl-thiophene-2-carboxylic acid], the IC50 in test [1] (between 100 nM and 5.0 uM) is 0.1 to 5 µM; on HCV polymerase, 0.013 µM.

As for `C[C@H]1CCCN1c1ccc(S(=O)(=O)N2CC(=O)N(c3cc(-c4ccccc4)sc3C(=O)O)C(C3CCCCC3)C2)cn1` (stereo partly drawn) [Compound 119, 3-{2-Cyclohexyl-4-[6-((S)-2-methyl-pyrrolidin-1-yl)-pyridine-3-sulfonyl]-6-oxo-piperazin-1-yl}-5-phenyl-thiophene-2-carboxylic acid], the IC50 is at most 0.1 µM in test [1] (setting [2]) and 0.009 µM at HCV polymerase.

As to `O=C(O)c1sc(-c2ccc(F)cc2)cc1N1C(=O)CCCC1C1CCCCC1` (centres unmarked) [Compound 70, 3-(2-Cyclohexyl-6-oxo-piperidin-1-yl)-5-(4-fluoro-phenyl)-thiophene-2-carboxylic acid], the IC50 in test [1] (between 100 nM and 5.0 uM) was 0.1 to 5 µM; on HCV polymerase it was 0.067 µM.

Turning to `CC(C)(C)C#Cc1cc(N2C(=O)[C@@](C)(CCC(C)(C)O)OC[C@H]2C2CCCCC2)c(C(=O)O)s1` [Compound 319, 3-[(2R,5R)-5-Cyclohexyl-2-(3-hydroxy-3-methyl-butyl)-2-methyl-3-oxo-morpholin-4-yl]-5-(3,3-dimethyl-but-1-ynyl)-thiophene-2-carboxylic acid], the IC50 in test [1] (setting [2]) is at most 0.1 µM; at HCV polymerase, 0.004 µM.

`C[C@@H]1CCC[C@H](C)N1c1ccc(S(=O)(=O)N2CC(=O)N(c3cc(-c4ccccc4)sc3C(=O)O)C(C3CCCCC3)C2)cn1` (stereo partly drawn) [Compound 126, 3-[2-Cyclohexyl-4-((2S,6R)-2,6-dimethyl-3,4,5,6-tetrahydro-2H-[1,2′]bipyridinyl-5′-sulfonyl)-6-oxo-piperazin-1-yl]-5-phenyl-thiophene-2-carboxylic acid]: the IC50 in test [1] (setting [2]) was at most 0.1 µM; at HCV polymerase it was 0.011 µM.

Turning to `Cc1ccc(-c2cc(N3C(=O)C(O)CCC3C3CCCCC3)c(C(=O)O)s2)cc1` (centres unmarked) [Compound 317, 3-(6-Cyclohexyl-3-hydroxy-2-oxo-piperidin-1-yl)-5-p-tolyl-thiophene-2-carboxylic acid], the IC50 in test [1] (between 100 nM and 5.0 uM) is 0.1 to 5 µM; at HCV polymerase it was 0.0241 µM.

On to `CC(C)CS(=O)(=O)N1CC(=O)N(c2cc(-c3ccccc3)sc2C(=O)O)C(C2CCCCC2)C1` (centres unmarked) [Compound 38, 3-[2-Cyclohexyl-4-(2-methyl-propane-1-sulfonyl)-6-oxo-piperazin-1-yl]-5-phenyl-thiophene-2-carboxylic acid], for which the IC50 in test [1] (between 100 nM and 5.0 uM) was 0.1 to 5 µM; on HCV polymerase, 0.065 µM.

With `COc1ccncc1-c1ccc(S(=O)(=O)N2CC(=O)N(c3cc(-c4ccccc4)sc3C(=O)O)[C@H](C3CCCCC3)C2)cn1` [Compound 204, 3-[(R)-2-Cyclohexyl-4-(4′-methoxy-[2,3′]bipyridinyl-5-sulfonyl)-6-oxo-piperazin-1-yl]-5-phenyl-thiophene-2-carboxylic acid], the IC50 is 0.1 to 5 µM in test [1] (between 100 nM and 5.0 uM); 0.002 µM at HCV polymerase.

On to `Cc1nc(S(=O)(=O)N2CC(=O)N(c3cc(C#CC(C)(C)C)sc3C(=O)O)[C@H](C3CCCCC3)C2)cn1C` [Compound 248, 3-[(R)-2-Cyclohexyl-4-(1,2-dimethyl-1H-imidazole-4-sulfonyl)-6-oxopiperazin-1-yl]-5-(3,3-dimethyl-but-1-ynyl)-thiophene-2-carboxylic acid], for which the figures for the IC50 (in test [1] (setting [2]); at HCV polymerase) were at most 0.1 µM and 0.002 µM, respectively.
